Laboratory results: PubChem BioAssay (NCI)
Values joined by “and” are separate entries in the source; they are usually repeats but may differ in a detail not shown here. Identical values can stand only once.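 How tested: cells in 96-well plates exposed to compound for 48 hours at five concentrations. GI50: concentration for 50% inhibition of growth. At the TGI there is no net growth.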

Tests used:
Assay in all cases: NCI tumour cell line growth inhibition, 48 h
DMS 114 small cell lung = system: DMS 114 small cell lung
HOP-92 NSCLC = system: HOP-92 NSCLC
MOLT-4 leukemia = system: MOLT-4 leukemia
OVCAR-4 ovarian = system: OVCAR-4 ovarian
RPMI-8226 leukemia = system: RPMI-8226 leukemia
RXF 393 renal = system: RXF 393 renal
SR leukemia = system: SR leukemia
TK-10 renal = system: TK-10 renal
UO-31 renal = system: UO-31 renal
786-0 renal = system: 786-0 renal
A498 renal = system: A498 renal
A549 NSCLC = system: A549 NSCLC
ACHN renal = system: ACHN renal
BT-549 breast = system: BT-549 breast
CAKI-1 renal = system: CAKI-1 renal
CCRF-CEM leukemia = system: CCRF-CEM leukemia
COLO 205 colon = system: COLO 205 colon
DU-145 prostate = system: DU-145 prostate
EKVX NSCLC = system: EKVX NSCLC
HCC-2998 colon = system: HCC-2998 colon
HCT-116 colon = system: HCT-116 colon
HCT-15 colon = system: HCT-15 colon
HL-60(TB) leukemia = system: HL-60(TB) leukemia
HOP-62 NSCLC = system: HOP-62 NSCLC
HS 578T breast = system: HS 578T breast
HT29 colon = system: HT29 colon
IGROV1 ovarian = system: IGROV1 ovarian
K-562 leukemia = system: K-562 leukemia
KM12 colon = system: KM12 colon
LOX IMVI melanoma = system: LOX IMVI melanoma
M14 melanoma = system: M14 melanoma
MALME-3M melanoma = system: MALME-3M melanoma
MCF7 breast = system: MCF7 breast
MDA-MB-231 breast = system: MDA-MB-231 breast
MDA-MB-435 = system: MDA-MB-435
MDA-N = system: MDA-N
NCI-H226 lung = system: NCI-H226 lung
NCI-H23 lung = system: NCI-H23 lung
NCI-H460 lung = system: NCI-H460 lung
NCI-H522 lung = system: NCI-H522 lung
NCI/ADR-RES ovarian = system: NCI/ADR-RES ovarian
OVCAR-3 ovarian = system: OVCAR-3 ovarian
OVCAR-5 ovarian = system: OVCAR-5 ovarian
OVCAR-8 ovarian = system: OVCAR-8 ovarian
PC-3 prostate = system: PC-3 prostate
SF-268 CNS = system: SF-268 CNS
SF-295 CNS = system: SF-295 CNS
SF-539 CNS = system: SF-539 CNS
SK-MEL-2 melanoma = system: SK-MEL-2 melanoma
SK-MEL-28 melanoma = system: SK-MEL-28 melanoma
SK-MEL-5 melanoma = system: SK-MEL-5 melanoma
SK-OV-3 ovarian = system: SK-OV-3 ovarian
SN12C renal = system: SN12C renal
SNB-19 CNS = system: SNB-19 CNS
SNB-75 CNS = system: SNB-75 CNS
SW-620 colon = system: SW-620 colon
T-47D breast = system: T-47D breast
U251 CNS = system: U251 CNS
UACC-257 melanoma = system: UACC-257 melanoma
UACC-62 melanoma = system: UACC-62 melanoma

CC(=O)OCC1OC(n2c(=S)n(-c3ccc(C)cc3)c(=O)c3ccccc32)C(OC(C)=O)C(OC(C)=O)C1OC(C)=O (stereo unspecified)
GI50 (DMS 114 small cell lung): 41.9 µM and 90 µM
TGI (DMS 114 small cell lung): > 100 µM
TGI (HOP-92 NSCLC): > 100 µM
TGI (MOLT-4 leukemia): > 100 µM
GI50 (OVCAR-4 ovarian): 17 µM and 45.1 µM
TGI (OVCAR-4 ovarian): 83.9 µM and > 100 µM
TGI (RPMI-8226 leukemia): > 100 µM
TGI (RXF 393 renal): > 100 µM
TGI (SR leukemia): > 100 µM
TGI (TK-10 renal): > 100 µM
TGI (UO-31 renal): > 100 µM

COc1cc(CC(C)C(C)Cc2ccc(O)c(OC)c2)ccc1O (stereo unspecified)
GI50 (786-0 renal): 13.6 µM
TGI (786-0 renal): 50 µM and 26.5 µM
TGI (A498 renal): 32.8 µM
TGI (A549 NSCLC): 50 µM and 27.1 µM
TGI (ACHN renal): 37.9 µM and 28.2 µM
TGI (BT-549 breast): 50 µM and 31.4 µM
TGI (CAKI-1 renal): 50 µM and 31.9 µM
GI50 (CCRF-CEM leukemia): 0.0496 µM
TGI (CCRF-CEM leukemia): 40.2 µM and 20.8 µM
GI50 (COLO 205 colon): 18.1 µM
TGI (COLO 205 colon): > 50 µM and 32.9 µM
GI50 (DU-145 prostate): 17 µM
TGI (DU-145 prostate): 50 µM and 30.6 µM
TGI (EKVX NSCLC): 41.5 µM and 30.3 µM
TGI (HCC-2998 colon): 32.7 µM
GI50 (HCT-116 colon): 14.6 µM
TGI (HCT-116 colon): 50 µM and 27.7 µM
GI50 (HCT-15 colon): 18 µM
TGI (HCT-15 colon): 50 µM and 39.9 µM
GI50 (HL-60(TB) leukemia): 0.0179 µM
GI50 (HOP-62 NSCLC): 17.6 µM
TGI (HOP-62 NSCLC): 50 µM and 33.6 µM
GI50 (HOP-92 NSCLC): 14.5 µM
TGI (HOP-92 NSCLC): 27.6 µM and 30.2 µM
GI50 (HS 578T breast): 20 µM
TGI (HS 578T breast): 22.7 µM and 49.8 µM
GI50 (HT29 colon): 16.2 µM
TGI (HT29 colon): 50 µM and 31.1 µM
GI50 (IGROV1 ovarian): 16.4 µM
TGI (IGROV1 ovarian): 43.1 µM and 33.7 µM
GI50 (K-562 leukemia): 12.7 µM
TGI (K-562 leukemia): 50 µM and 39 µM
GI50 (KM12 colon): 17.6 µM
TGI (KM12 colon): 50 µM and 33.8 µM
GI50 (LOX IMVI melanoma): 17.9 µM
TGI (LOX IMVI melanoma): 30.7 µM and 40.9 µM
TGI (M14 melanoma): 47.5 µM and 30.2 µM
GI50 (MALME-3M melanoma): 16.2 µM
TGI (MALME-3M melanoma): 32.7 µM and 34 µM
TGI (MCF7 breast): 38 µM
TGI (MDA-MB-231 breast): 50 µM
GI50 (MDA-MB-435): 15.1 µM
TGI (MDA-MB-435): 38.4 µM and 29.6 µM
GI50 (MDA-N): 13.7 µM
TGI (MDA-N): 50 µM and 26.6 µM
GI50 (MOLT-4 leukemia): 1.39 µM
TGI (MOLT-4 leukemia): 22 µM and 13 µM
GI50 (NCI-H226 lung): 16.8 µM
TGI (NCI-H226 lung): 40.7 µM and 33.2 µM
GI50 (NCI-H23 lung): 21.2 µM
TGI (NCI-H23 lung): 50 µM and 44.4 µM
GI50 (NCI-H460 lung): 18.3 µM
TGI (NCI-H460 lung): 39.9 µM and 32.3 µM
GI50 (NCI-H522 lung): 16.2 µM
TGI (NCI-H522 lung): 21.4 µM and 33.5 µM
TGI (NCI/ADR-RES ovarian): 50 µM and 41.6 µM
TGI (OVCAR-3 ovarian): 50 µM and 32.5 µM
GI50 (OVCAR-4 ovarian): 17.3 µM
TGI (OVCAR-4 ovarian): 50 µM and 41.2 µM
GI50 (OVCAR-5 ovarian): 14.4 µM
TGI (OVCAR-5 ovarian): > 50 µM and 27.7 µM
TGI (OVCAR-8 ovarian): 50 µM and 41 µM
TGI (PC-3 prostate): 27.7 µM
GI50 (RPMI-8226 leukemia): 19.4 µM
TGI (RPMI-8226 leukemia): 17.4 µM and 45.8 µM
GI50 (RXF 393 renal): 17.7 µM
TGI (RXF 393 renal): 42.7 µM and 35.4 µM
TGI (SF-268 CNS): 50 µM and 34.7 µM
TGI (SF-295 CNS): 50 µM and 35.1 µM
GI50 (SF-539 CNS): 17 µM
TGI (SF-539 CNS): 50 µM and 31.6 µM
TGI (SK-MEL-2 melanoma): 25 µM
TGI (SK-MEL-28 melanoma): 50 µM and 35.5 µM
GI50 (SK-MEL-5 melanoma): 14.9 µM
TGI (SK-MEL-5 melanoma): 16.5 µM and 28.1 µM
GI50 (SK-OV-3 ovarian): 16.9 µM
TGI (SK-OV-3 ovarian): 50 µM and 33.4 µM
GI50 (SN12C renal): 13.1 µM
TGI (SN12C renal): 50 µM and 26 µM
GI50 (SNB-19 CNS): 15.8 µM
TGI (SNB-19 CNS): 50 µM and 29.6 µM
GI50 (SNB-75 CNS): 18.4 µM
TGI (SNB-75 CNS): 50 µM and 34.5 µM
GI50 (SR leukemia): 6.41 µM
TGI (SR leukemia): 18.8 µM and 24.9 µM
TGI (SW-620 colon): 50 µM and 35 µM
GI50 (T-47D breast): 21.9 µM
TGI (T-47D breast): 50 µM and 50.6 µM
GI50 (TK-10 renal): 18.2 µM
TGI (TK-10 renal): 50 µM and 32.7 µM
TGI (U251 CNS): 50 µM
GI50 (UACC-257 melanoma): 19.2 µM
TGI (UACC-257 melanoma): 50 µM and 37.3 µM
GI50 (UACC-62 melanoma): 14.4 µM
TGI (UACC-62 melanoma): 50 µM and 27.6 µM
TGI (UO-31 renal): 25.3 µM

O=C(CC(=O)Nc1ccccc1Cl)NNC(c1cc(N=Nc2ccc(Br)cc2)ccc1O)P(O)O (stereo unspecified)
TGI (786-0 renal): > 10 µM
TGI (A498 renal): 7.87 µM
TGI (A549 NSCLC): > 10 µM
TGI (ACHN renal): > 10 µM
TGI (BT-549 breast): > 10 µM
TGI (CAKI-1 renal): 6.71 µM
TGI (CCRF-CEM leukemia): 9.58 µM
TGI (COLO 205 colon): > 10 µM
TGI (DU-145 prostate): > 10 µM
TGI (EKVX NSCLC): > 10 µM
TGI (HCC-2998 colon): > 10 µM
TGI (HCT-116 colon): 0.964 µM
TGI (HCT-15 colon): > 10 µM
TGI (HL-60(TB) leukemia): 1.18 µM
TGI (HOP-62 NSCLC): > 10 µM
TGI (HOP-92 NSCLC): > 10 µM
TGI (HS 578T breast): > 10 µM
TGI (HT29 colon): > 10 µM
TGI (IGROV1 ovarian): > 10 µM
TGI (K-562 leukemia): 6.78 µM
TGI (KM12 colon): > 10 µM
TGI (LOX IMVI melanoma): 9.51 µM
TGI (M14 melanoma): 2.72 µM
TGI (MALME-3M melanoma): > 10 µM
TGI (MCF7 breast): > 10 µM
TGI (MDA-MB-231 breast): > 10 µM
TGI (MDA-MB-435): > 10 µM
TGI (MDA-N): > 10 µM
TGI (MOLT-4 leukemia): > 10 µM
TGI (NCI-H226 lung): 6 µM
TGI (NCI-H23 lung): > 10 µM
TGI (NCI-H460 lung): > 10 µM
TGI (NCI-H522 lung): > 10 µM
TGI (NCI/ADR-RES ovarian): > 10 µM
TGI (OVCAR-3 ovarian): > 10 µM
TGI (OVCAR-4 ovarian): > 10 µM
TGI (OVCAR-5 ovarian): > 10 µM
TGI (OVCAR-8 ovarian): 3.57 µM
TGI (PC-3 prostate): > 10 µM
TGI (RPMI-8226 leukemia): > 10 µM
TGI (RXF 393 renal): > 10 µM
TGI (SF-268 CNS): > 10 µM
TGI (SF-295 CNS): > 10 µM
TGI (SF-539 CNS): 5.89 µM
TGI (SK-MEL-2 melanoma): > 10 µM
TGI (SK-MEL-28 melanoma): > 10 µM
TGI (SK-MEL-5 melanoma): 4.96 µM
TGI (SK-OV-3 ovarian): > 10 µM
TGI (SN12C renal): > 10 µM
TGI (SNB-19 CNS): > 10 µM
TGI (SNB-75 CNS): 9.72 µM
TGI (SR leukemia): > 10 µM
TGI (SW-620 colon): > 10 µM
TGI (T-47D breast): > 10 µM
TGI (TK-10 renal): > 10 µM
TGI (U251 CNS): > 10 µM
TGI (UACC-257 melanoma): > 10 µM
TGI (UACC-62 melanoma): 6.12 µM
TGI (UO-31 renal): > 10 µM
